ChEMBL document CHEMBL3885881, “DrugMatrix”

Organism: Rattus norvegicus
Experiment: DrugMatrix - Regimen: Daily Repeat
Assay type: toxicity, organism-based, Sprague-Dawley
Set-up: regimen Daily Repeat, gender Male, age 6-8 weeks
Details: in vivo, po, route oral GAVAGE, […]; for ABSOLUTE BASOPHIL / ABSOLUTE EOSINOPHIL / ABSOLUTE LYMPHOCYTE / ABSOLUTE SEGMENTED NEUTROPHIL / BASOPHIL / EOSINOPHIL / ERYTHROCYTE COUNT / HEMATOCRIT / HEMOGLOBIN / LEUKOCYTE COUNT / LYMPHOCYTE / MEAN CORPUSCULAR HEMOGLOBIN / MEAN CORPUSCULAR HEMOGLOBIN CONCENTRATION / MEAN CORPUSCULAR VOLUME / MONOCYTE / NEUTROPHIL / NUCLEATED RED BLOOD CELLS / PLATELET COUNT: tissue Blood; for ALANINE AMINOTRANSFERASE / ALBUMIN / ALKALINE PHOSPHATASE / ASPARTATE AMINOTRANSFERASE / BLOOD UREA NITROGEN / CARBON DIOXIDE / CHLORIDE / CHOLESTEROL / CREATINE PHOSPHOKINASE / CREATININE / GLUCOSE / LACTATE DEHYDROGENASE / LIPASE / PHOSPHORUS / POTASSIUM / SODIUM / TOTAL BILIRUBIN / TOTAL PROTEIN / URIC ACID: tissue Plasma
[1] = 15 mg/kg, 120 h, dose level Low, time 5 day
[2] = 1200 mg/kg, 72 h, dose level High, time 3 day
[3] = 1200 mg/kg, 120 h, dose level High, time 5 day

## CCC(C)(C)C(=O)O[C@H]1C[C@@H](C)C=C2C=C[C@H](C)[C@H](CC[C@@H]3C[C@@H](O)CC(=O)O3)[C@H]21 [SIMVASTATIN]
[1]
  ABSOLUTE BASOPHIL: 0 CELLS/uL
  ABSOLUTE EOSINOPHIL: 0 CELLS/uL
  ABSOLUTE LYMPHOCYTE: 6051 CELLS/uL
  ABSOLUTE SEGMENTED NEUTROPHIL: 802.33 CELLS/uL
  BASOPHIL: 0%
  EOSINOPHIL: 0%
  ERYTHROCYTE COUNT: 5.09 x10E6/uL
  HEMATOCRIT: 32.87%
  HEMOGLOBIN: 12.87 G/DL
  LEUKOCYTE COUNT: 6.93 x10E3/uL
  LYMPHOCYTE: 87.67%
  MEAN CORPUSCULAR HEMOGLOBIN: 25.33 pg
  MEAN CORPUSCULAR HEMOGLOBIN CONCENTRATION: 39.2 G/DL
  MEAN CORPUSCULAR VOLUME: 64.63 fL
  MONOCYTE: 1%
  NEUTROPHIL: 11.33%
  NUCLEATED RED BLOOD CELLS: 0 /100WBC
  PLATELET COUNT: 1251.33 x10E3/uL
  ALANINE AMINOTRANSFERASE: 57.67 u/L
  ALBUMIN: 4 G/DL
  ALKALINE PHOSPHATASE: 335.33 u/L
  ASPARTATE AMINOTRANSFERASE: 77.67 u/L
  BLOOD UREA NITROGEN: 14.67 mg/dL
  CARBON DIOXIDE: 30.67 mmol/L
  CHLORIDE: 99 MEQ/L
  CHOLESTEROL: 66.33 mg/dL
  CREATINE PHOSPHOKINASE: 168.67 u/L
  CREATININE: 0.17 mg/dL
  GLUCOSE: 178.67 mg/dL
  LACTATE DEHYDROGENASE: 64 u/L
  LIPASE: 9.33 u/L
  PHOSPHORUS: 11.6 mg/dL
  POTASSIUM: 5.71 MEQ/L
  SODIUM: 144.13 MEQ/L
  TOTAL BILIRUBIN: 0.1 mg/dL
  TOTAL PROTEIN: 5.6 G/DL
  URIC ACID: 0.67 mg/dL
[2]
  ABSOLUTE BASOPHIL: 0 CELLS/uL
  ABSOLUTE EOSINOPHIL: 0 CELLS/uL
  ABSOLUTE LYMPHOCYTE: 6224.67 CELLS/uL
  ABSOLUTE SEGMENTED NEUTROPHIL: 3273.67 CELLS/uL
  BASOPHIL: 0%
  EOSINOPHIL: 0%
  ERYTHROCYTE COUNT: 6.06 x10E6/uL
  HEMATOCRIT: 37.77%
  HEMOGLOBIN: 14.83 G/DL
  LEUKOCYTE COUNT: 9.57 x10E3/uL
  LYMPHOCYTE: 66%
  MEAN CORPUSCULAR HEMOGLOBIN: 24.57 pg
  MEAN CORPUSCULAR HEMOGLOBIN CONCENTRATION: 39.27 G/DL
  MEAN CORPUSCULAR VOLUME: 62.5 fL
  MONOCYTE: 0.67%
  NEUTROPHIL: 33.33%
  NUCLEATED RED BLOOD CELLS: 0 /100WBC
  PLATELET COUNT: 1143.67 x10E3/uL
  ALANINE AMINOTRANSFERASE: 323.67 u/L
  ALBUMIN: 4.43 G/DL
  ALKALINE PHOSPHATASE: 403.67 u/L
  ASPARTATE AMINOTRANSFERASE: 291.33 u/L
  BLOOD UREA NITROGEN: 12 mg/dL
  CARBON DIOXIDE: 33 mmol/L
  CHLORIDE: 97.67 MEQ/L
  CHOLESTEROL: 46.33 mg/dL
  CREATINE PHOSPHOKINASE: 1429 u/L
  CREATININE: 0.1 mg/dL
  GLUCOSE: 174.33 mg/dL
  LACTATE DEHYDROGENASE: 212.33 u/L
  LIPASE: 26 u/L
  PHOSPHORUS: 7.2 mg/dL
  POTASSIUM: 5.3 MEQ/L
  SODIUM: 144.93 MEQ/L
  TOTAL BILIRUBIN: 0.17 mg/dL
  TOTAL PROTEIN: 5.67 G/DL
  URIC ACID: 0.5 mg/dL
[3]
  ABSOLUTE BASOPHIL: 0 CELLS/uL
  ABSOLUTE EOSINOPHIL: 0 CELLS/uL
  ABSOLUTE LYMPHOCYTE: 2769 CELLS/uL
  ABSOLUTE SEGMENTED NEUTROPHIL: 4331 CELLS/uL
  BASOPHIL: 0%
  EOSINOPHIL: 0%
  ERYTHROCYTE COUNT: 6.93 x10E6/uL
  HEMATOCRIT: 43.8%
  HEMOGLOBIN: 17.4 G/DL
  LEUKOCYTE COUNT: 7.1 x10E3/uL
  LYMPHOCYTE: 39%
  MEAN CORPUSCULAR HEMOGLOBIN: 25.1 pg
  MEAN CORPUSCULAR HEMOGLOBIN CONCENTRATION: 39.7 G/DL
  MEAN CORPUSCULAR VOLUME: 63.2 fL
  MONOCYTE: 0%
  NEUTROPHIL: 61%
  NUCLEATED RED BLOOD CELLS: 0 /100WBC
  PLATELET COUNT: 1317 x10E3/uL
  ALANINE AMINOTRANSFERASE: 285 u/L
  ALBUMIN: 4.7 G/DL
  ALKALINE PHOSPHATASE: 273 u/L
  ASPARTATE AMINOTRANSFERASE: 367 u/L
  BLOOD UREA NITROGEN: 37 mg/dL
  CARBON DIOXIDE: 35 mmol/L
  CHLORIDE: 82 MEQ/L
  CHOLESTEROL: 103 mg/dL
  CREATINE PHOSPHOKINASE: 1419 u/L
  CREATININE: 0.1 mg/dL
  GLUCOSE: 205 mg/dL
  LACTATE DEHYDROGENASE: 510 u/L
  LIPASE: 55 u/L
  PHOSPHORUS: 9 mg/dL
  POTASSIUM: 4.84 MEQ/L
  SODIUM: 136.7 MEQ/L
  TOTAL BILIRUBIN: 0.2 mg/dL
  TOTAL PROTEIN: 6.1 G/DL
  URIC ACID: 0.6 mg/dL
